Consider 43 compounds from a melting point compilation (Tetko et al.).

`CC(=O)N1CCN(CCN2C3=C(C(=O)CC(C)(C)C3)C(c3ccc(Cl)cc3)C3=C2CC(C)(C)CC3=O)CC1` had a melting point of 213 °C.

`CN1C(=O)N2CCc3ccccc3C2(c2ccc(Cl)cc2)C1=O` (stereo not drawn): the melting point was 121 to 122 °C.

For the compound `CC(=O)OOC(=O)c1ccccc1`, the melting point amounted to 37 °C.

In the case of `FC(F)(F)c1cnc(N2CCNCC2)c(Cl)c1`, the melting point was 65 to 67 °C.

In the case of `Cc1cc(C)nc(Cl)n1`, the melting point was in the range of 34 to 36 °C.

`Cc1ccc(C#N)c(F)c1` displayed a melting point of 53 °C.

Consider `O=[N+]([O-])c1cncn1CCN1CCOCC1`, for which the melting point was found to be 110 °C.

Take `O=Cc1cccc2c([N+](=O)[O-])cccc12`: the melting point came out at 136 °C.

Regarding `Cc1nc(CCl)c(C)o1`, the melting point lay within 34 to 37 °C.

In the case of `O=C(Nc1ccc(Br)cc1)c1cc(Br)cc(Br)c1O`, the melting point is 227 °C.

Take `CN1CCN(C)C(C(=O)NN)C1` (stereo not drawn): the melting point was 113 °C.

As for `Nc1cccc(N2CCOCC2)c1`, the melting point lay in the range of 118 to 119 °C.

In the case of `COC1=C(C(C)C)C(=O)C2=C(C1=O)C1(C)CCCC(C)(C)C1CC2O` (stereo not drawn), the melting point is 138 °C.

For `NC(=O)c1ccccc1OCC(=O)O`, the melting point stood at 221 °C.

In turn, `O=Cc1ccc2c(c1)C(=O)c1c(Cl)c(Cl)c(Cl)c(Cl)c1C2=O` returned a melting point of 183 °C.

Compound `Cc1cncc(N2CCC(C(=O)Oc3c(F)c(F)c(F)c(F)c3F)CC2)n1` displayed a melting point of 94 to 95 °C.

Compound `O[C@H](C1CCCCC1)[C@H](O)C1CCCCC1` yielded a melting point of 136 to 141 °C.

Compound `N#Cc1cc(I)c(O)c(I)c1` displayed a melting point of 212 °C.

With `CC(O)CC(=O)O` (stereo not drawn), the melting point is 49 °C.

`COc1cc2c(cc1OC)Cc1cc(OC)c(OC)cc1Cc1cc(OC)c(OC)cc1C2` showed a melting point of 222 to 228 °C.

Compound `NS(=O)(=O)c1ccc(Oc2ccccc2)cc1` registered a melting point of 131 °C.

Consider `CCS(=O)(=O)c1cccnc1S(=O)(=O)NC(=O)Nc1nc(OC)cc(OC)n1`, for which the melting point worked out at 177 °C.

In turn, `CC(=O)Oc1ccc(N=C2C=CC(=O)C=C2)cc1` came in with a melting point of 111 to 116 °C.

The compound `Cc1ccc(C(=O)C=Cc2ccc(F)cc2)cc1` came in with a melting point of 119 to 121 °C.

In turn, `Cn1nc(-c2ccc(C=O)s2)cc1C(F)(F)F` yielded a melting point of 80 to 81 °C.

Compound `CCOC(=O)c1cnc2c(c(C)nn2C)c1Cl` showed a melting point of 87 to 90 °C.

For the compound `Nc1cccnc1[N+](=O)[O-]`, the melting point was in the range of 194 to 196 °C.

`CNC(=O)Oc1ccc(SC)c(C)c1` returned a melting point of 118 °C.

In the case of `CCOC(=O)c1csc(C2COc3ccccc3O2)n1` (stereo not drawn), the melting point was in the range of 66.5 to 69.8 °C.

With `C/C(=C(/C#N)c1nc2ccccc2s1)c1cc2ccccc2oc1=O`, the melting point came to 155 °C.

`Nc1nc(-c2ccc(Br)s2)cs1` came in with a melting point of 170 °C.

Compound `Nc1cc(N)c(/C=C/c2ccccc2)c([N+](=O)[O-])c1C=Cc1ccccc1` displayed a melting point of 175 °C.

The compound `CC(C)NC(=O)COC(=O)c1ccccc1` displayed a melting point of 130 °C.

In turn, `CC(C)(C)CC(C)(C)S` returned a melting point of -74 °C.

Compound `CCCCCCCCCCOc1ccc(C(=O)O)cc1` yielded a melting point of 114 °C.

Regarding `CC(C)Oc1ccc(S(=O)(=O)Cl)cc1`, the melting point came out at 33 °C.

`CC1=NN(c2ccccc2)C(=O)C1C(=O)C(F)(F)F` (stereo not drawn) came in with a melting point of 143 °C.

`Cc1cc2nnc(C(=O)O)c(C)n2n1` displayed a melting point of 166 to 168 °C.

The compound `ClC(Cl)(Cl)CC(Cl)(Cl)Cl` returned a melting point of -27 °C.

As for `O=C(O)C=Cc1c(F)cccc1Cl`, the melting point lay in the range of 163 to 165 °C.

`Cc1csc(C(=O)O)c1` came in with a melting point of 124 to 125 °C.

`CCOP(=S)(OCC)ON=C(C#N)c1ccccc1` displayed a melting point of 6.1 °C.

With `CSC(Cl)=NS(=O)(=O)c1ccc(C)cc1`, the melting point is 90 to 91 °C.

As a reminder, the melting point is the temperature of the solid-liquid transition.
